What was measured:
[1] = system: human small cell lung cancer cell lines (SCLC-21H); assay: MTS cytotoxicity on SCLC-21H cells; format: cell-based; conditions: 50 μM, 72 h; for inhibition at 50 µM: Homo sapiens, SCLC-21H, read-out: Inhibition rate (human small cell lung cancer SCLC-21H)
Method: (§1) The following was a study of the cytotoxicity study of compound of 2-(substituted phenylhetero)aromatic formic acid of formula (I) and its derivatives as FTO inhibitors on solid tumors including human small cell lung cancer cell lines (SCLC-21H), human bone marrow rhabdomyosarcoma cell line (RH30) and pancreatic cancer cell Line (KP3):
(§2) SCLC-21H, RH30 and KP3 solid tumor cell lines were cultivated separately, and seeded at 5000 cells per well in 96 well plates. The cells were cultured until the cells were adherent, and different compounds were added and the cultivation was continued for 72 hours. 10 uL of MTS solution was directly added and the mixture was incubated for 4 h, and the absorbance was measured at 490 nm. The inhibition rate was calculated by using the DMSO group as a control.

[2] = target: FTO (Homo sapiens (Human), UniProt Q9C0B1); assay: FTO enzyme inhibition (m6A dsDNA substrate, DpnII digestion, gel readout); format: biochemical; conditions: for Inhibition rate: in vitro inhibition rate on FTO, compound at 50 μM; for inhibition at 50 µM: read-out: Inhibition rate
Method: High purity FTO protein was obtained by nickel column affinity chromatography purification.
After incubation at room temperature for 2 hrs, the reaction system was then slowly heated to 65° C. to inactivate, and 1 μM 39 nt of antisense strand DNA was added to anneal, thereby forming double strands. […] After Gel-Red dyeing, photos were taken with gel imaging system. The obtained band was subjected to gray scale reading to obtain inhibition rate.

[3] = system: human bone marrow rhabdomyosarcoma cell line (RH30); assay: MTS cytotoxicity on RH30 cells; format: cell-based; conditions: 50 μM, 72 h; for inhibition at 50 µM: Homo sapiens, Rh30, read-out: Inhibition rate (human bone marrow rhabdomyosarcoma cell RH30)
Method: as §1, §2

Chain of FTO (Q9C0B1 whole entry): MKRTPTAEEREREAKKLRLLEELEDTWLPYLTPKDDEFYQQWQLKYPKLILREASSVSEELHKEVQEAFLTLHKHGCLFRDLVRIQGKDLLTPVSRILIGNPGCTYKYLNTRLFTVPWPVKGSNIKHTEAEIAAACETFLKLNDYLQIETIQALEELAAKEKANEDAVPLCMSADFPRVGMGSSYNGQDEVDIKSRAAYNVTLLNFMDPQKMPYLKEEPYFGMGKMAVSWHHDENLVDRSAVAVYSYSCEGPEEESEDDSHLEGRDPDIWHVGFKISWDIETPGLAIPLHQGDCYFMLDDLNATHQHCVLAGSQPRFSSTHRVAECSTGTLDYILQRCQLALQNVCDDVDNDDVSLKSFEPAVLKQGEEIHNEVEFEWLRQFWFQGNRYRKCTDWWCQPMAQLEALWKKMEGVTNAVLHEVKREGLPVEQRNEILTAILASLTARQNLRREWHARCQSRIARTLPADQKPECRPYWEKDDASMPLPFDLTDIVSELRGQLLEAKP

Compound	Inhibition rate (human small cell lung cancer SCLC-21H) [1] [%]	Inhibition rate (human bone marrow rhabdomyosarcoma cell RH30) [3] [%]	Inhibition rate [2] [%]	further results
O=C(O)c1ccccc1Nc1c(Cl)cc(-c2ccncc2)cc1Cl [Compound 5]	–	–	–	inhibition at 50 µM [1]: 55%; IC50 [2]: < 5000 nM; inhibition at 50 µM [3]: 29%
Cc1n[nH]c(C)c1-c1cc(Cl)c(Nc2ccccc2C(=O)O)c(Cl)c1 [Compound 17]	–	–	–	inhibition at 50 µM [1]: 25%; inhibition at 50 µM [3]: 39%
COc1cc(OC)cc(-c2cc(Cl)c(Nc3ncccc3C(=O)O)c(Cl)c2)c1 [Compound 61]	44	52	–	–
Cc1n[nH]cc1-c1cc(Cl)c(Nc2ncccc2C(=O)O)c(Cl)c1 [Compound 57]	47	40	100	–
Cc1noc(C)c1-c1cc(Cl)c(Nc2ccc(F)cc2C(=O)O)c(Cl)c1 [Compound 69]	50	29	–	–
Cc1noc(C)c1-c1cc(Cl)c(Nc2ncccc2C(=O)NO)c(Cl)c1 [Compound 63]	70	68	35	–
COc1cc(-c2c(C)noc2C)cc(OC)c1Nc1ccccc1C(=O)O [Compound 43]	44	25	–	–
O=C(O)c1cccnc1Nc1c(Cl)cc(-c2ccoc2)cc1Cl [Compound 59]	28	57	100	–
O=C(O)c1ccccc1Nc1ccc(-c2ccncc2)cc1O [Compound 52]	–	–	90	–
Cc1noc(C)c1-c1cc(Cl)c(Nc2ccccc2C(=O)O)c(Cl)c1 [Compound 30]	33	32	–	–
Cc1cc(-c2c(C)noc2C)cc(C)c1Nc1ccccc1C(=O)O [Compound 44]	47	24	100	–
Cc1noc(C)c1-c1cc(Cl)c(Nc2ccccc2C(=O)OCc2oc(=O)oc2C)c(Cl)c1 [Compound 88]	–	–	–	inhibition at 50 µM [2]: 34%
Cc1noc(C)c1-c1cc(Cl)c(Nc2ccccc2C(=O)O)c(Cl)c1 [Compound 15, 2-((2,6-dichloro-4-(3,5-dimethylisoxazole)phenyl)amino)benzoic acid]	–	–	–	inhibition at 50 µM [1]: 43%; inhibition at 50 µM [3]: 49%
O=C(O)c1ccccc1Nc1c(Cl)cc(-c2cc(O)cc(O)c2)cc1Cl [Compound 1]	–	–	–	IC50 [2]: 700 nM; inhibition at 50 µM [2]: 85%
Cc1noc(C)c1-c1cc(Cl)c(Nc2ccccc2C(=O)O)c(Cl)c1 [Compound 28]	32	21	–	–
Cc1noc(C)c1-c1cc(Cl)c(Nc2ccccc2-c2noc(=O)[nH]2)c(Cl)c1 [Compound 27]	14	50	–	IC50 [2]: < 1000 nM
Cc1noc(C)c1-c1cc(Cl)c(Nc2ccccc2C(=O)OCOC(=O)C(C)(C)C)c(Cl)c1 [Compound 87]	–	–	–	inhibition at 50 µM [1]: 26%; inhibition at 50 µM [2]: 31%; inhibition at 50 µM [3]: 28%
Cc1noc(C)c1-c1cc(Cl)c(Nc2ccc(N)cc2C(=O)O)c(Cl)c1 [Compound 75]	60	51	58	–
O=C(O)c1cc(F)ccc1Nc1c(Cl)cc(-c2cncnc2)cc1Cl [Compound 71]	–	–	70	–
Cc1noc(C)c1-c1cc(Cl)c(Nc2ccccc2-c2nn[nH]n2)c(Cl)c1 [Compound 26]	17	36	–	–
Cc1n[nH]cc1-c1cc(Cl)c(Nc2nccnc2C(=O)O)c(Cl)c1 [Compound 67]	33	41	–	–
Cc1noc(C)c1-c1cc(O)c(Nc2ccccc2C(=O)O)c(O)c1 [Compound 40]	–	–	100	–

— patent publication US11555009B2, “2-(substituted benzene matrix) aromatic formate FTO inhibitor, preparation method therefor, and applications thereof” (SHANGHAI INSTITUTE OF MATERIA MEDICA, CHINESE ACADEMY OF …, priority 2017, dated 2023)
